Assay [1] deals with children diagnosed as having autism. The experiment in a line: Fecal Chymotrypsin Test before and after secretin infusion in 16 autistic children (Experiment 1). In kind it is in vivo, human. Particulars: each of 16 autistic children; approximately one week after first secretin infusion, 1 U/kg IV. As to the method: (§1) In this experiment, 16 children diagnosed as having autism were administered the following Fecal Chymotrypsin Test in accordance with an embodiment of the invention. First, approximately 2 grams of stool were collected from each child and placed in a sterile container (although it is to be understood that any quantity of stool may be collected, as 2 grams of stool is not a required amount). Each stool sample was then analyzed using, e.g., an enzymatic photospectrometry analysis as is known by those skilled in the art, to determine the level of fecal chymotrypsin in the stool. Although the enzymatic photospectrophotometry process is preferred, any suitable conventional method may be used for measuring the fecal chymotrypsin levels. The measured chymotrypsin levels of the 16 autistic children are illustrated in FIG. 13.
After determining the chymotrypsin levels of the stools, each of these levels were compared with threshold chymotrypsin levels to determine if the child was likely to benefit from secretin administration. By way of example, with the fecal chymotrypsin tests of the stool samples being performed at 30° C., normal levels of chymotrypsin are deemed to lie above 8.4 U/gram, whereas pathologically abnormal levels are deemed to lie below 4.2 U/gram. […]

The test system is the same in assay [2]. As to the kind of experiment: CARS (Childhood Autism Rating Scale) test pre- and post-secretin administration (Experiment 1). To be noted: 16 autistic children. In kind it is in vivo, human. The procedure:
Upon determining that a given child was likely to benefit from secretin administration based on the results of the fecal chymotrypsin test, the child was administered a CARS (Childhood Autism Rating Scale) test prior to being scheduled for secretin infusion.
For each of the 16 autistic children tested, a preferred secretin infusion process according to the present invention was performed involving the administering of 1 U/kg of body weight of Secretin-Ferring for a period of nine months at intervals of approximately 6 weeks. In addition, another CARS test was administered to each of the 16 autistic children 3 weeks post secretin administration to determine if their autism had changed post infusion.
A preferred secretin infusion process includes the initial step of prepping an arm of the candidate child with an IV injection of saline. A test dose of 1 U of Secretin-Ferring is then administered to the child. Approximately one minute after infusion, the child is examined for signs of allergic reaction including rash, increased heart rate, and increase of blood pressure. […] Subsequently, each child receives a 1 U/kg of body weight infusion of Secretin-Ferring approximately every 6 weeks for 9 months. It is to be understood that any commercially available form of secretin may be used.

Assay [3] has as its system autistic children with abnormal fecal chymotrypsin levels. The experiment in a line: Fecal chymotrypsin levels of 37 autistic children administered secretin over 6 months (Experiment 2). Particulars: 6 Months Post-Secretin Administration, of 37 children. The format is in vivo, human. The procedure: as §1
After determining the chymotrypsin levels of the stools, each of these levels were compared with threshold chymotrypsin levels to determine if the child was likely to benefit from secretin administration. By way of example, with the fecal chymotrypsin tests of the stool samples being performed at 30° C., normal levels of chymotrypsin are deemed to lie above 8.4 U/gram, whereas pathologically abnormal levels are deemed to lie below 4.2 U/gram. In addition, chymotrypsin levels between 8.4 U/gram and 4.2 U/gram are considered equivocal, and further testing of the individual's fecal chymotrypsin levels over a period of time should be performed.
A preferred secretin infusion process includes the initial step of prepping an arm of the candidate child with an IV injection of saline. A test dose of 1 U of Secretin-Ferring is then administered to the child. […]
In this experiment, 37 autistic children with abnormal fecal chymotrypsin levels were administered secretin over the course of 6 months using the secretin infusion process described above. Their fecal chymotrypsin (FC) levels were measured weekly using the fecal chymotrypsin test described above.

Assay [4] relates to children diagnosed with Autism. To be noted: secretin given as diagnostic procedure during upper gastrointestinal endoscopy; Horvath et al. 1998; cited from earlier work.

secretin: in assay [1], the “fecal chymotrypsin level post-secretin administration versus pre-secretin” value is listed as “increased”. In addition, in assay [2] (3 weeks post infusion), the “CARS component scores (except fear component)” value is “demonstrated improvement”. In assay [2] (approximately 3 weeks after first secretin administration), the “overall CARS scores post-secretin versus pre-secretin” value is “overall decrease”. For the same substance, in assay [3] (0 equivocal pre-secretin), the “# Autistic Children w/Equivocal FC levels” value was found to be 2. Further, the “# Autistic Children w/normal FC levels” value in assay [3] (0 normal pre-secretin) came to 34. In assay [3] (37 abnormal pre-secretin), the “# Autistic Children w/Abnormal FC levels” value was 1. For the same substance, the “symptoms associated with Autism” value in assay [4] is recorded as “ameliorating the symptoms”.

These data come from patent US20120207740A1, “Method for Treating Pervasive Development Disorders” (CUREMARK, LLC, priority 1999, published 2012).
